We go through 34 compounds from patent US20240270751A1, “Pyrazolopyridinone Compounds” (BeiGene Ltd., priority 2021, published 2024).

One test concerns the target DGKα (Homo sapiens (Human), UniProt P23743). Description: Biochemical DGK IC50 assay, DGKα ADP-Glo assay. The conditions noted are these: 7.5 nM enzyme, 140 μM ATP, 80 μM DAG. Put shortly: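 Compounds at final 1.55˜10000 nM or 23.3˜150000 nM were tested against full-length DGKα. Substrate was lipid micelles of DAG and PS resuspended in 25 mM HEPES pH 7.0 with 0.5 mM EDTA and 160 mM octyl β-D-glucopyranoside. ADP formed was detected by ADP-Glo.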
A general note: In ADP-Glo the light output rises with the ADP produced.

In the next test the target is DGKζ (Homo sapiens (Human), UniProt Q13574). Kind of test: Biochemical DGK IC50 assay, DGKζ ADP-Glo assay. The conditions noted are these: 0.5 nM enzyme, 140 μM ATP, 80 μM DAG; read-out: DGKζ ADP-Glo assay IC50. The method in brief: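 ADP formation measured by ADP-Glo luminescence, with test compounds at final 1.55–10000 nM or 23.3–150000 nM. Enzyme: purified full-length human DGKζ from Sf9 insect cells; substrate: DAG/PS micelles in 25 mM HEPES pH 7.0, 0.5 mM EDTA, octyl glucoside.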
Sequence of DGKζ (Q13574 other isoform, or with tags, fused parts or gaps): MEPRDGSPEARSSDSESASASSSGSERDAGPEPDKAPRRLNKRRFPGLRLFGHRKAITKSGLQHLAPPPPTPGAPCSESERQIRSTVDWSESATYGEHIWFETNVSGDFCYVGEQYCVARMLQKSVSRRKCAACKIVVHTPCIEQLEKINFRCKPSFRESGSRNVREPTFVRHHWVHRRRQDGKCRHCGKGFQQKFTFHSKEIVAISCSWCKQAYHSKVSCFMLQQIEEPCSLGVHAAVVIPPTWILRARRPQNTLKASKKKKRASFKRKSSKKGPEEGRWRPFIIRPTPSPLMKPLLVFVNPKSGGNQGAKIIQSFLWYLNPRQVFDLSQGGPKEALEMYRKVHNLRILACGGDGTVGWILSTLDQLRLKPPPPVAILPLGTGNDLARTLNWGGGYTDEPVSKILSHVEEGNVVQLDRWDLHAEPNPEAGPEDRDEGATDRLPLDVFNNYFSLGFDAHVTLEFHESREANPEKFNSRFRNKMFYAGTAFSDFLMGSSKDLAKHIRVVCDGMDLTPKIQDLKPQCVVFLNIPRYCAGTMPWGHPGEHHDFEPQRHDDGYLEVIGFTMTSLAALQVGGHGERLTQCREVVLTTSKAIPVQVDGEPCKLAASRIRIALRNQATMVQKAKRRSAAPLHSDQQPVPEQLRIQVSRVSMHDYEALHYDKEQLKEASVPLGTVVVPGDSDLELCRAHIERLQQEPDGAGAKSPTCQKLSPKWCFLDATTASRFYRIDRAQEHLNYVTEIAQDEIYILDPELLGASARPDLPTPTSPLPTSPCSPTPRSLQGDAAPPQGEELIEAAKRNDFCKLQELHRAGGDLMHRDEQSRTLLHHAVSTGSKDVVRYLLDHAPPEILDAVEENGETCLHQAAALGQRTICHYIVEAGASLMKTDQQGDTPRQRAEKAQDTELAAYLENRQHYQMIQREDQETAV

A word on the IC50: it is the midpoint of a concentration-inhibition curve.

Sequence of DGKα (P23743 whole entry): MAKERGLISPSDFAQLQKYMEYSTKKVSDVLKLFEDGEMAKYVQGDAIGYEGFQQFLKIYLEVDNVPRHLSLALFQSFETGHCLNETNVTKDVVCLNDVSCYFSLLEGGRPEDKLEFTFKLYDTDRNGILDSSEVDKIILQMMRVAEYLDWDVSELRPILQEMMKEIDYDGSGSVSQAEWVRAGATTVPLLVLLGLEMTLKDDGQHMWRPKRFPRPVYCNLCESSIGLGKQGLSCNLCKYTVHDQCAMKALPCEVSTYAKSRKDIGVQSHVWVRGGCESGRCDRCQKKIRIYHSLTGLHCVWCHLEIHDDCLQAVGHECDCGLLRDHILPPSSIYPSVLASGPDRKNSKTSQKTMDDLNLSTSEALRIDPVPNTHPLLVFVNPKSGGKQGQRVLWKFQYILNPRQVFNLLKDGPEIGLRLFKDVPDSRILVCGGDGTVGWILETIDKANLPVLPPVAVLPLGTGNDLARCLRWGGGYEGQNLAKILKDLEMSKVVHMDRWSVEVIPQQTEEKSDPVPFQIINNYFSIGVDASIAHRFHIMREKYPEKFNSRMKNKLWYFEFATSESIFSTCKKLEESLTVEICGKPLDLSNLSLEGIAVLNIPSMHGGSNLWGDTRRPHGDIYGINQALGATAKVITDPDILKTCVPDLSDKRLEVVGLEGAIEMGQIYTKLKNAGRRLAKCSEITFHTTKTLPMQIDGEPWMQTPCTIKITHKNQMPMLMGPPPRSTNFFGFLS

For `CC(c1ccc2nccnc2c1)N1C[C@H](C)N(c2cc(=O)[nH]c3cn(CC#N)nc23)C[C@H]1C` (single isomer, unassigned) [Compound A260, 2-(7-((2S,5R)-2,5-dimethyl-4-((R)-1-(quinoxalin-6-yl)ethyl)piperazin-1-yl)-5-oxo-4,5-dihydro-2H-pyrazolo[4,3-b]pyridin-2-yl)acetonitrile, or 2-(7-((2S,5R)-2,5-dimethyl-4-((S)-1-(quinoxalin-6-yl)ethyl)piperazin-1-yl)-5-oxo-4,5-dihydro-2H-pyrazolo[4,3-b]pyridin-2-yl)acetonitrile], the IC50 against DGKα is above 10000 nM; at DGKζ, 394 nM.
On the same counts, the results for `CC[C@@H]1CN(c2nc(=O)[nH]c3cn(CC#N)nc23)[C@@H](C)CN1C(C)c1ccc2nccnc2c1` (single isomer, unassigned) [Compound A183a] are 7740 nM and 110 nM.
Consider `CC[C@@H]1CN(c2cc(=O)n(C)c3cn(CC#N)nc23)[C@@H](CC)CN1C(=O)c1ccc2cccnc2c1` [Compound A373], for which the IC50 on DGKα was 21800 nM; on DGKζ, 3220 nM.
In the case of `CC[C@H]1CN(C(C)c2nc3ccccc3n2C(C)C)[C@H](CC)CN1c1cc(=O)n(C)c2cn(CC#N)nc12` (some centres unmarked) [Compound A193], the results for the IC50 against DGKα and at DGKζ were above 10000 nM and 5730 nM, respectively.
The matching figures for `CC[C@@H]1CN(c2cc(=O)n(C)c3cn(CC#N)nc23)[C@@H](C)CN1C(C)c1ccc2nccnc2c1` (mixture of isomers) [Compound A97, 2-(7-((2S,5R)-5-ethyl-2-methyl-4-(1-(quinoxalin-6-yl)ethyl)piperazin-1-yl)-4-methyl-5-oxo-4,5-dihydro-2H-pyrazolo[4,3-b]pyridin-2-yl)acetonitrile]: 999 nM and 1 nM.
As to `CC[C@@H]1CN(c2c(F)c(=O)[nH]c3cn(CC#N)nc23)[C@@H](C)CN1C(C)c1ccc2nccnc2c1` (single isomer, unassigned) [Compound A194a], the figures for the IC50 against DGKα and on DGKζ were 6350 nM and 155 nM, respectively.
In the case of `CC[C@H]1CN(C(C)c2ncc(F)cc2F)[C@H](CC)CN1c1cc(=O)n(C)c2cn(CC#N)nc12` (some centres unmarked) [Compound A148], the IC50 against DGKα came to 34 nM; at DGKζ it was 190 nM.
In the case of `CC[C@H]1CN(C(C)c2ccc(F)cc2C(N)=O)[C@H](CC)CN1c1cc(=O)n(C)c2cn(CC#N)nc12` (some centres unmarked) [Compound A289], the IC50 is above 10000 nM against DGKα and 1130 nM on DGKζ.
The matching figures for `CC[C@H]1CN(C(C)c2cnc(C(F)(F)F)n2CC)[C@H](CC)CN1c1cc(=O)n(C)c2cn(CC#N)nc12` (some centres unmarked) [Compound A239]: above 10000 nM and 391 nM.
On to `CC[C@H]1CN(C(C)c2nc3ccccc3n2CC)[C@H](CC)CN1c1cc(=O)n(C)c2cn(CC#N)nc12` (stereo partly drawn) [Compound A144, 2-(7-((2S,5R)-2,5-diethyl-4-(1-(1-ethyl-1H-benzo[d]imidazol-2-yl)ethyl)piperazin-1-yl)-4-methyl-5-oxo-4,5-dihydro-2H-pyrazolo[4,3-b]pyridin-2-yl)acetonitrile], for which the values for the IC50 against DGKα and at DGKζ were 105000 nM and 42 nM, respectively.
With `CC[C@H]1CN(C(C)c2ncc(C)cc2F)[C@H](CC)CN1c1cc(=O)n(C)c2cn(CC#N)nc12` (some centres unmarked) [Compound A359], the IC50 against DGKα turned out to be 117 nM; on DGKζ, 299 nM.
For the compound `CC[C@H]1CN(C(C)c2ccc(OC(F)(F)F)cn2)[C@H](CC)CN1c1cc(=O)n(C)c2cn(CC#N)nc12` (some centres unmarked) [Compound A361], the IC50 was determined as 5.1 nM against DGKα and 554 nM at DGKζ.
Regarding `COc1cnc2cc(C(C)N3C[C@H](C)N(c4cc(=O)n(C)c5cn(CC#N)nc45)C[C@H]3C)ccc2n1` (stereo partly drawn) [Compound A283, 2-(7-((2S,5R)-4-(1-(2-methoxyquinoxalin-6-yl)ethyl)-2,5-dimethylpiperazin-1-yl)-4-methyl-5-oxo-4,5-dihydro-2H-pyrazolo[4,3-b]pyridin-2-yl)acetonitrile], the results for the IC50 against DGKα and on DGKζ were 12400 nM and 881 nM, respectively.
On the same counts, the results for `CC[C@H]1CN(C(C)c2ccc(C(C)(C)C#N)cn2)[C@H](CC)CN1c1cc(=O)n(C)c2cn(CC#N)nc12` (some centres unmarked) [Compound A386] are 689 nM and 418 nM.
For the compound `COc1ccc(C(C)N2C[C@H](C)N(c3cc(=O)n(C)c4cn(CC#N)nc34)C[C@H]2C)cc1` (some centres unmarked) [Compound A38], the IC50 against DGKα is 899 nM; on DGKζ, 610 nM.
`CC(c1ccc2c(n1)OC(C)(C)CO2)N1C[C@H](C)N(c2cc(=O)n(C)c3cn(CC#N)nc23)C[C@H]1C` (stereo partly drawn) [Compound A325, 2-(7-((2S,5R)-4-(1-(3,3-dimethyl-2,3-dihydro-[1,4]dioxino[2,3-b]pyridin-6-yl)ethyl)-2,5-dimethylpiperazin-1-yl)-4-methyl-5-oxo-4,5-dihydro-2H-pyrazolo[4,3-b]pyridin-2-yl)acetonitrile]: the IC50 stood at 103000 nM against DGKα and 89 nM at DGKζ.
The matching figures for `C=C(C)n1cc2c(n1)c(N1C[C@@H](C)N(Cc3ccc(OC(F)(F)F)cc3)C[C@@H]1C)cc(=O)n2C` [Compound A26, 7-((2S,5R)-2,5-dimethyl-4-(4-(trifluoromethoxy)benzyl)piperazin-1-yl)-4-methyl-2-(prop-1-en-2-yl)-2,4-dihydro-5H-pyrazolo[4,3-b]pyridin-5-one]: 4.3 nM and 98000 nM.
On the same counts, the results for `CC[C@H]1CN(C(C)c2ccc3ccccc3c2)[C@H](CC)CN1c1cc(=O)n(C)c2cn(CC#N)nc12` (some centres unmarked) [Compound A50] are 790 nM and 720 nM.
On to `CC#CCn1cc2c(n1)c(N1C[C@@H](C)N([C@@H](C)c3ccc4nccnc4c3)C[C@@H]1C)cc(=O)n2C` [Compound A22b, 2-(but-2-yn-1-yl)-7-((2S,5R)-2,5-dimethyl-4-((S)-1-(quinoxalin-6-yl)ethyl)piperazin-1-yl)-4-methyl-2,4-dihydro-5H-pyrazolo[4,3-b]pyridin-5-one], for which the IC50 is 190 nM against DGKα and 72 nM on DGKζ.
The matching figures for `CC[C@H]1CN(C(C)c2c(C)cnn2CC)[C@H](CC)CN1c1cc(=O)n(C)c2cn(CC#N)nc12` (single isomer, unassigned) [Compound A227b]: above 10000 nM and 691 nM.
The matching figures for `CC[C@@H]1CN(c2cc(=O)n(C)c3cn(CC(F)F)nc23)[C@@H](C)CN1C(C)c1ccc2nccnc2c1` (single isomer, unassigned) [Compound A222b]: 7420 nM and above 10000 nM.
On the same counts, the results for `CC(c1ccc2nccnc2c1)N1C[C@H](C)N(c2cc(=O)n(C)c3cn(CC4CO4)nc23)C[C@H]1C` (some centres unmarked) [Compound A12] are above 150000 nM and 2200 nM.
For the compound `CC[C@H]1CN(C(C)c2ccc(CN3CCC(F)(F)CC3)cc2)[C@H](CC)CN1c1cc(=O)n(C)c2cn(CC#N)nc12` (some centres unmarked) [Compound A344], the IC50 came out at 108 nM against DGKα and 198 nM on DGKζ.
Consider `CC[C@H]1CN(C(C)c2cc(C)c(C)cn2)[C@H](CC)CN1c1cc(=O)n(C)c2cn(CC#N)nc12` (some centres unmarked) [Compound A385], for which the IC50 against DGKα was 481 nM; at DGKζ, 498 nM.
With `CC[C@H]1CN(C(C)c2ccc(CN3CCC(F)(F)CC3)nc2)[C@H](CC)CN1c1cc(=O)n(C)c2cn(CC#N)nc12` (single isomer, unassigned) [Compound A381a], the figures for the IC50 at DGKα and at DGKζ were 459 nM and 290 nM, respectively.
On the same counts, the results for `CC[C@H]1CN(C(C)c2c(F)cc(F)cc2OC)[C@H](CC)CN1c1cc(=O)n(C)c2cn(CC#N)nc12` (single isomer, unassigned) [Compound A201b] are above 10000 nM and above 10000 nM.
On the same counts, the results for `CC[C@H]1CN(C(C)c2ccc(F)cc2C(F)F)[C@H](CC)CN1c1cc(=O)n(C)c2cn(CC#N)nc12` (single isomer, unassigned) [Compound A172b] are 20400 nM and 14 nM.
The matching figures for `CC[C@H]1CN(C(C)c2ccc(F)cc2OC)[C@H](CC)CN1c1cc(=O)n(CCO)c2cn(CC#N)nc12` (single isomer, unassigned) [Compound A153b]: above 10000 nM and 545 nM.
As to `CC[C@H]1CN(C(C)c2ccc(OCC3CCOC3)cc2)[C@H](CC)CN1c1cc(=O)n(C)c2cn(CC#N)nc12` (some centres unmarked) [Compound A376], the IC50 is 206 nM on DGKα and 602 nM at DGKζ.
The matching figures for `CC[C@H]1CN(C(C)c2ccc(F)cc2C(=O)N(C)C)[C@H](CC)CN1c1cc(=O)n(C)c2cn(CC#N)nc12` (some centres unmarked) [Compound A292]: above 150000 nM and 1910 nM.
On the same counts, the results for `CC[C@H]1CN(C(C)c2cccc(CO)c2)[C@H](CC)CN1c1cc(=O)n(C)c2cn(CC#N)nc12` (single isomer, unassigned) [Compound A121a] are 1300 nM and 3020 nM.
The matching figures for `CC[C@H]1CN(C(C)c2ccccc2OC(F)(F)F)[C@H](CC)CN1c1cc(=O)n(C)c2cn(CC#N)nc12` (some centres unmarked) [Compound A80]: above 10000 nM and 663 nM.
Regarding `CC[C@H]1CN(C(C)c2ccc3nccnc3c2)[C@H](CC)CN1c1cc(=O)n(C)c2cn(CC#N)nc12` (mixture of isomers) [Compound A28, 2-(7-((2S,5R)-2,5-diethyl-4-(1-(quinoxalin-6-yl)ethyl)piperazin-1-yl)-4-methyl-5-oxo-4,5-dihydro-2H-pyrazolo[4,3-b]pyridin-2-yl)acetonitrile], the IC50 came to 310 nM against DGKα and 6.7 nM on DGKζ.
On the same counts, the results for `CC[C@H]1CN(C(C)c2ccccc2)[C@H](CC)CN1c1cc(=O)n(C)c2cn(CC#N)nc12` (some centres unmarked) [Compound A89] are 4.3 nM and 296 nM.
